In brackets after ≈: the same amount, converted by molar mass.

Type in all cases: cell-based
In test [1] the test system is Pseudomonas aeruginosa PAO 6609. The source says:
(§1) In the indicator mutants, the synthesis of the respective siderophores, e.g. pyoverdin, pyochelin, enterobactin, aerobactin or yersiniabactin, or the biosynthesis of aromatic compounds, is blocked, or there is a lack of receptors for enterobactin, pyochelin or pyoverdin and for other important components for the bacterial transport of iron (e.g. the membrane proteins Cir, Fiu, FepA and TonB). Under conditions where there is a lack of iron, these mutants therefore cannot grow or can only grow to a very slight extent. In particular, the following indicator mutants were used: Pseudomonas aeruginosa PAO 6609, K 407, 690; E. coli AB 2847, Salmonella typhimurium enb-7, TA 270; Klebsiella pneumoniae KN 4401; Yersinia enterocolitica WAH; Proteus mirabilis 12 (wild); Proteus vulgaris 718 (wild) and Morganella morganii SBK3 (wild). […] The controls used were ferrioxamine E for the Pseudomonas strains, ferrioxamine G and enterobactin for the Salmonella strains, ferrichrome for the E. coli, Klebsiella and Y. enterocol. strains, and 3,4-dihydroxybenzylidene-2,4,6-trimethylaniline for Morganella morganii (see the above literature reference by R. Reissbrodt et al.).
(§2) The annotations + and (+) relate to non-specific promotion of growth.

Test [2] has as its system Klebsiella pneumoniae KN 4401. The following applies: Klebsiella KN 4401.
Source text: as §1, §2

Test [3] has as its system Salmonella typhimurium enb-7.
Source text: as §1, §2

The test system of test [4] is Yersinia enterocolitica WAH. The following applies: Y. enterocol. WAH.
Source text: as §1, §2

The test system of test [5] is Pseudomonas aeruginosa 690.
Source text: as §1, §2

The subject of test [6] is Proteus vulgaris 718 (wild).
Source text: as §1, §2

For test [7], the system named is Proteus mirabilis 12 (wild).
Source text: as §1, §2

Test [8] relates to Salmonella typhimurium TA 2700.
Source text: as §1, §2

For test [9], the system named is Morganella morganii SBK3 (wild).
Source text: as §1, §2

Test [10] concerns Pseudomonas aeruginosa K 407. The following applies: Pseudomonas aeruginosa K407.
Source text: as §1, §2

Test [11] relates to Salmonella gallinarum ATCC 9184. The following applies: concentration 100 μg/ml; Salmonella galinarum ATCC 9184.
In test [12] the test system is Pseudomonas aeruginosa SG 137 (carbenicillin-resistant). Briefly: Agar diffusion test. The note with it: concentration 100 μg/ml; P. aeruginosa SG 137.
Test [13] deals with Pseudomonas aeruginosa KW 799/61 (penetration mutant). The following applies: concentration 100 μg/ml; P. aeruginosa KW799/61.
In test [14] the test system is E. coli mutant PLB3268 ompF++. The following applies: E. coli mutant PLB3268 ompF++ (ompF super-expressed). The source says: (§3) The efficacy against β-lactamase formers and against multi-resistant germs is therefore due to a new type of mechanism for overcoming the penetration resistance, by means of which the ratio of active ingredient to enzyme in the bacterial cell is influenced so that not all antibiotic molecules are inactivated before they reach their target.
PLB268: ompF- was super-expressed.

Test [15] concerns Stenotrophomonas maltophilia GN 12873. Briefly: Microdilution test (MIC).
Test [16] relates to E. coli DC2 (penetration mutant). The following applies: concentration 100 μg/ml.
In test [17] the test system is Pseudomonas aeruginosa KW 799 WT (wild type). Briefly: Agar diffusion test. The note with it: concentration 100 μg/ml; P. aeruginosa KW799/WT.
The test system of test [18] is Stenotrophomonas maltophilia IMET 10402. Briefly: Agar diffusion test. The note with it: concentration 100 μg/ml.
For test [19], the system named is E. coli mutant KB5 ompC−.
Source text: as §3

Test [20] concerns E. coli mutant KB4 ompF−.
Source text: as §3

Test [21] has as its system Pseudomonas aeruginosa NPS1 (plasmid-coded β-lactamase). The note with it: concentration 100 μg/ml; P. aeruginosa NPS 1.
For test [22], the system named is Pseudomonas aeruginosa ATCC 27853. Briefly: Microdilution test (MIC). The following applies: Pseudomonas aeruginosa, ATCC27853; P. aeruginosa ATCC 27853. On the procedure:
(§4) The minimum inhibiting concentrations (MICs) were determined for the following bacterial strains: Pseudomonas aeruginosa NCTC 10701, NCTC 10662, SG 137, ATCC 27853, KW 799 WT and KW 799/61, E. coli DCO, DC2 and ATCC 25922, Serratia marcescens SG 621; Salmonella gallinarum ATCC 9184, Klebsiella pneumoniae ATCC 10031 and SG 117.

Test [23] concerns E. coli ATCC 25922. Briefly: Microdilution test (MIC). On the procedure: as §4
Test [24] relates to Pseudomonas aeruginosa SG 137. Briefly: Microdilution test (MIC). The following applies: P. aeruginosa SG 137. The method, then: as §4
For test [25], the system named is Pseudomonas aeruginosa NCTC 10662. Briefly: Microdilution test (MIC). The following applies: P. aeruginosa NCTC 10662. The method, then:
as §4

The subject of test [26] is Pseudomonas aeruginosa NCTC 10701. Briefly: Microdilution test (MIC). The note with it: Pseudomonas aeruginosa, NCTC10701; P. aeruginosa NCTC 10701. The method, then: as §4
Test [27] relates to Serratia marcescens SG 621. Briefly: Microdilution test (MIC). The method, then:
as §4

For test [28], the system named is Klebsiella pneumoniae ATCC 10031. Briefly: Microdilution test (MIC). The method, then:
as §4

The subject of test [29] is Pseudomonas aeruginosa NCTC 10662. Briefly: Agar diffusion test. The note with it: concentration 100 μg/ml; P. aeruginosa NCTC 10662.
Test [30] concerns Pseudomonas aeruginosa NCTC 10701. Briefly: Agar diffusion test. The following applies: concentration 100 μg/ml; P. aeruginosa NCTC 10701.
Test [31] has as its system Pseudomonas aeruginosa KW 799 WT. Briefly: Microdilution test (MIC). The note with it: P. aeruginosa KW 799/WT. The method, then:
as §4
(§5) With the test germs KW 799/WT and /61 of Pseudomonas and DCO and DC2 of E. coli, the effect of improved penetration capacity on the efficacy of the substances was investigated.

For test [32], the system named is E. coli DC0. Briefly: Microdilution test (MIC). The note with it: E. coli DC0. On the procedure:
as §4, §5

For test [33], the system named is Pseudomonas aeruginosa KW 799/61. Briefly: Microdilution test (MIC). On the procedure:
as §4, §5

Test [34] has as its system Klebsiella pneumoniae SG 117. Briefly: Agar diffusion test. The following applies: concentration 100 μg/ml.
The subject of test [35] is Pseudomonas aeruginosa ATCC 27853 (wild type). Briefly: Agar diffusion test. The note with it: concentration 100 μg/ml; P. aeruginosa ATCC 27853.
The subject of test [36] is Stenotrophomonas maltophilia GN 12873. Briefly: Agar diffusion test. The note with it: concentration 100 μg/ml.
In test [37] the test system is Pseudomonas aeruginosa ATCC 9027 (wild type). Briefly: Agar diffusion test. The note with it: concentration 100 μg/ml; P. aeruginosa ATCC 9027.
Test [38] deals with Salmonella gallinarum ATCC 9184. Briefly: microbe, parasite or virus in culture. The following applies: Salmonella enterica; Salmonella gallinarum ATCC9184; read-out: MIC values, microdilution test. The method, then: as §4
Test [39] relates to Pseudomonas aeruginosa Oxa6 (plasmid-coded β-lactamase). The note with it: concentration 100 μg/ml; P. aeruginosa OXA 6.
For test [40], the system named is E. coli DC0 (wild type). Briefly: Agar diffusion test. The note with it: concentration 100 μg/ml.
Test [41] deals with E. coli DC2. Briefly: microbe, parasite or virus in culture. On the procedure:
as §4, §5

For test [42], the system named is E. coli mutant BR185 tonB−.
Test [43] deals with E. coli AB2847 tonB+.
Setting [44] is: Escherichia coli, read-out: MIC values, microdilution test.

As to `O=C(O)c1cc(O)c(O)c(C=NNC(=O)c2cccc(O)c2O)c1` [Substance 13, 3-formyl-4,5-dihydroxybenzoic Acid-(2,3-dihydroxy-benzhydrazone)], the “Growth areas of siderophore indicator strains (diameter)” value is given as 10 mm in [1]; 15 mm in test [2]; 18 mm in test [3]; 10 mm in test [4]; 10 mm in test [5]; 23 mm in test [6]. The “Growth areas of siderophore indicator strains (diameter)” value in test [7] came out at 23 mm; in test [8], 23 mm; in [9], 24 mm; in test [10], 11 mm.

As to `CC1(C)S[C@@H]2[C@H](NC(=O)[C@H](N)c3ccccc3)C(=O)N2[C@H]1C(=O)O` [Ampicillin, reference compound], the “inhibition spot diameter in the agar diffusion test” value in test [11] is recorded as 34 mm; in test [12], 0 mm; in [13], 41 mm; in test [16], 32 mm; in [17], 0 mm; in test [18] it was 0 mm. Moreover, the “inhibition spot diameter in the agar diffusion test” value in test [21] is reported as 0 mm; in test [29], 0 mm; in test [30], 0 mm; in [34] it was 19 mm; in [35] it was 0 mm; in [36] it was 0 mm. The “inhibition spot diameter in the agar diffusion test” value is reported as 0 mm in test [37], 0 mm in test [39] and 22 mm in test [40]. The “inhibition spot diameter in agar diffusion test” value in test [14] came to 17.5 mm; in [19], 9.5 mm; in test [20], 10 mm. Further, the MIC in test [15] (GN12873) was > 100 µg/mL; in [22] it was > 100 µg/mL; in test [23] (Escherichia coli, ATCC25922), 6.25 µg/mL (≈ 17.9 µM); in [24] (Pseudomonas aeruginosa, SG137), > 100 µg/mL; in [25] (Pseudomonas aeruginosa, NCTC10662), > 100 µg/mL; in test [26] it was > 100 µg/mL. The MIC in test [27] (SG621) was 25 µg/mL (≈ 71.5 µM); in test [28] (ATCC10031) it was 50 µg/mL (≈ 143 µM); in [31] (Pseudomonas aeruginosa, KW799WT), > 100 µg/mL; in test [32] (setting [44]), 6.25 µg/mL (≈ 17.9 µM); in test [33] (Pseudomonas aeruginosa, KW799/61, P. aeruginosa KW 799/61), 0.4 µg/mL (≈ 1.14 µM); in [38], 0.2 µg/mL (≈ 0.572 µM). Further, the MIC in test [41] (setting [44]) is 1.56 µg/mL (≈ 4.46 µM).

With `CC(=O)Oc1cccc(C(=O)Nc2ccc(C(=O)N[C@@H](C(=O)N[C@@H]3C(=O)N4[C@@H]3SC(C)(C)[C@@H]4C(=O)O)c3ccccc3)cc2)c1OC(C)=O` [Substance 29], the “inhibition spot diameter in the agar diffusion test” value in test [11] stood at 22 mm; in test [12] it was 28 mm; in [13] it was 33 mm; in test [16], 28 mm; in [17], 27 mm; in test [18], 23 mm. For the same compound, the “inhibition spot diameter in the agar diffusion test” value turned out to be 12 mm in test [21]; 23 mm in test [30]; 15 mm in test [34]; 19 mm in test [36]; 21 mm in [37]; 13 mm in test [39]. Further, the “inhibition spot diameter in the agar diffusion test” value in [40] is 22 mm. The “inhibition spot diameter in agar diffusion test” value is given as 14 mm in [14]; 0 mm in test [42]; 7 mm in test [19]; 9.5 mm in test [20]; 6 mm in test [43]. In addition, the “MIC values, microdilution test” value was determined as 12.5 µg/mL (≈ 18.1 µM) in test [15]; 100 µg/mL (≈ 145 µM) in test [23]; 0.78 µg/mL (≈ 1.13 µM) in test [24]; 12.5 µg/mL (≈ 18.1 µM) in [25]; 25 µg/mL (≈ 36.3 µM) in test [27]; 50 µg/mL (≈ 72.6 µM) in test [28]. The “MIC values, microdilution test” value was determined as 3.12 µg/mL (≈ 4.53 µM) in [31], 50 µg/mL (≈ 72.6 µM) in [32], 0.4 µg/mL (≈ 0.581 µM) in test [33] and 1.56 µg/mL (≈ 2.27 µM) in test [41].

Values taken from patent publication US6380181B1, “Synthetic catechol derivatives, method for production and use thereof” (priority 1996, dated 2002).
